Seven compounds from patent US20260184663A1, “INDENE COMPOUNDS, PHARMACEUTICAL COMPOSITIONS THEREOF, AND THEIR THERAPEUTIC APPLICATIONS” (NucMito Pharmaceuticals co. Ltd., priority 2022, published 2026) can be followed below.

Holding throughout (type): cell-based
For assay [1], the system named is MDA-MB-231 (breast cancer). Briefly: Antiproliferative activity (CCK-8 cell viability), MDA-MB-231. The note with it: Homo sapiens, 72 h, read-out: Antiproliferative activity in cancerous cells, MDA-MB-231 (inhibition of cell growth); for inhibition at 3.3 µM: Compound concentration: 3.3 μM; for inhibition at 10 µM: Compound concentration: 10 μM. An outline of the steps: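 Growth inhibition of human MDA-MB-231 breast cancer cells was assessed with a Cell Counting Kit-8. Cells cultured in DMEM plus 10% FBS were seeded at 2,000-5,000 cells/well, treated after attachment, and kept 72 h at 37° C. CCK-8 solution (10 μL) was added for 4 h, and absorbance at 450 nm was compared with DMSO-treated controls.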

A further assay has as its system HeLa (cervical cancer). Briefly: Antiproliferative activity (CCK-8 cell viability), HeLa. The note with it: Homo sapiens, 72 h, read-out: Antiproliferative activity in cancerous cells, HELA (inhibition of cell growth); for inhibition at 3.3 µM: Compound concentration: 3.3 μM; for inhibition at 10 µM: Compound concentration: 10 μM. The essentials: (§1)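 Growth inhibition graded in bands from percent viability against DMSO vehicle, read as CCK-8 absorbance at 450 nm. Compound tested at 3.3, 10 or 30 μM for 72 h, 37 °C; media contained 10% FBS: DMEM for HepG2/SW480, MEM for HeLa, F-12K for A549.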

Assay [2] concerns B16F10 (malignant melanoma). Briefly: Antiproliferative activity (CCK-8 cell viability), B16F10. The note with it: Mus musculus, 72 h; for inhibition at 3.3 µM: B16-F10, Compound concentration: 3.3 μM; for inhibition at 3.3 µM / inhibition at 10 µM: read-out: Antiproliferative activity in cancerous cells, B16F10 (inhibition of cell growth); for inhibition at 10 µM: B16-F10, Compound concentration: 10 μM. The essentials: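 Cell growth inhibition was measured in B16F10 malignant melanoma cells with a Cell Counting Kit-8 viability assay. Cells were maintained in DMEM plus 10% fetal bovine serum, seeded at 2,000-5,000 cells/well in 96-well plates, and treated for 72 h at 37° C. Viability was expressed relative to DMSO-treated vehicle control wells.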

Assay [3] concerns A431 (epidermoid carcinoma). Briefly: Antiproliferative activity (CCK-8 cell viability), A431. The note with it: Homo sapiens, 72 h; for inhibition at 3.3 µM: A-431, Compound concentration: 3.3 μM; for inhibition at 3.3 µM / inhibition at 10 µM: read-out: Antiproliferative activity in cancerous cells, A431 (inhibition of cell growth); for inhibition at 10 µM: A-431, Compound concentration: 10 μM. The essentials:
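This growth inhibition assay used A431 cells maintained in Dulbecco's modified Eagle's medium plus 10% fetal bovine serum. Cells were seeded in 96-well plates, treated with compound for 72 h at 37° C., and then given 10 μL CCK-8 solution. After a further 4 h, absorbance was read at 450 nm.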

For assay [4], the system named is alpha-smooth muscle actin (α-SMA). As to the kind of experiment: Inhibition of TGF-β induced expression of alpha-smooth muscle actin (α-SMA) in CFSC cells (western blot). The note with it: compound at 10 μM, TGF-β (10 ng/mL), 24 hours, band intensity vs TGF-β only. The essentials: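 CFSC hepatic stellate cells in serum-free DMEM treated 24 h at 37 °C with compound at 10 μM plus TGF-β (10 ng/mL). α-SMA measured by Western blot with β-actin, ECL detection, densitometry. Percent inhibition is decrease in band intensity versus TGF-β-only cells.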
On the technique in general: In western blotting, separated proteins are transferred to a membrane and probed.

A further assay has as its system SW480 (colon cancer). As to the kind of experiment: Antiproliferative activity (CCK-8 cell viability), SW480. The note with it: Homo sapiens, 72 h; for inhibition at 3.3 µM: Compound concentration: 3.3 μM; for inhibition at 3.3 µM / inhibition at 10 µM: read-out: Antiproliferative activity in cancerous cells, SW480 (inhibition of cell growth); for inhibition at 10 µM: Compound concentration: 10 μM. The essentials:
as §1

Assay [5] has as its system A549 (lung adenocarcinoma). Briefly: Antiproliferative activity (CCK-8 cell viability), A549. The note with it: Homo sapiens, 72 h, read-out: Antiproliferative activity in cancerous cells, A549 (inhibition of cell growth); for inhibition at 3.3 µM: Compound concentration: 3.3 μM; for inhibition at 10 µM: Compound concentration: 10 μM. An outline of the steps: as §1
Another assay has as its system HepG2 (liver cancer). As to the kind of experiment: Antiproliferative activity (CCK-8 cell viability), HepG2. The note with it: Homo sapiens, 72 h; for inhibition at 3.3 µM: Compound concentration: 3.3 μM; for inhibition at 3.3 µM / inhibition at 10 µM: read-out: Antiproliferative activity in cancerous cells, HepG2 (inhibition of cell growth); for inhibition at 10 µM: Compound concentration: 10 μM. An outline of the steps:
as §1

In the case of `O=C(O)CC1=C(Cc2ccc(C(F)(F)F)cc2)/C(=C/c2ccc(Oc3ccc(F)cc3)cc2)c2ccc(F)cc21` [C11, (Z)-2-(5-Fluoro-1-(4-(4-fluorophenoxy)benzylidene)-2-(4-(trifluoromethyl)-benzyl)-1H-inden-3-yl)acetic acid], the inhibition at 3.3 µM (in assay [1]; in the assay on HeLa (cervical cancer); in assay [2]; in assay [3]; in the assay on SW480 (colon cancer); in assay [5]) was not below 50% throughout. For the same compound, the inhibition at 3.3 µM in the assay with HepG2 (liver cancer) is not below 50%. In addition, the inhibition at 10 µM in assay [1] is not below 50%; with HeLa (cervical cancer) it was not below 50%; in assay [2], not below 50%; in assay [3] it was not below 50%; in assay [4], more than 80%; with SW480 (colon cancer), not below 50%. Moreover, the inhibition at 10 µM (in assay [5]; in the assay on HepG2 (liver cancer)) was not below 50% each time.

Turning to `CC1=C(CC(=O)O)c2cc(F)ccc2/C1=C\c1ccccc1OCc1ccccc1` [B28, (Z)-2-(1-(2-(Benzyloxy)benzylidene)-5-fluoro-2-methyl-1H-inden-3-yl)acetic acid], the inhibition at 3.3 µM in assay [1] is 30 to 50%; in the assay with HeLa (cervical cancer) it was not below 50%; in assay [2], less than 30%; in assay [3], not below 50%; in the assay with SW480 (colon cancer) it was 30 to 50%; in assay [5] it was 30 to 50%. Further, the inhibition at 3.3 µM in the assay on HepG2 (liver cancer) is not below 50%. In addition, the inhibition at 10 µM in assay [1] is not below 50%; in the assay with HeLa (cervical cancer), not below 50%; in assay [2] it was 30 to 50%; in assay [3] it was not below 50%; in assay [4], more than 80%; with SW480 (colon cancer), not below 50%. Further, the inhibition at 10 µM (in assay [5]; with HepG2 (liver cancer)) was not below 50% throughout.

In the case of `CC1=C(CCO)c2cc(F)ccc2/C1=C\c1ccc(Oc2ccc(F)cc2)cc1` [A201, (Z)-2-(5-Fluoro-1-(4-(4-fluorophenoxy)benzylidene)-2-methyl-1H-inden-3-yl)-ethan-1-ol], the inhibition at 3.3 µM is 30 to 50% in assay [1]; 30 to 50% with HeLa (cervical cancer); less than 30% in assay [2]; not below 50% in assay [3]; not below 50% in the assay with SW480 (colon cancer); 30 to 50% in assay [5]. For the same compound, the inhibition at 3.3 µM in the assay on HepG2 (liver cancer) was not below 50%. Also, the inhibition at 10 µM in assay [1] was not below 50%; with HeLa (cervical cancer) it was not below 50%; in assay [2], not below 50%; in assay [3], not below 50%; in assay [4] it was less than 30%; with SW480 (colon cancer) it was not below 50%. Moreover, the inhibition at 10 µM (in assay [5]; in the assay on HepG2 (liver cancer)) was not below 50% throughout.

`CC1=C(CC(=O)O)c2c(F)cccc2/C1=C\c1cccc(COc2ccccc2)c1` [B13, (Z)-2-(4-Fluoro-2-methyl-1-(3-(phenoxymethyl)benzylidene)-1H-inden-3-yl)-acetic acid]: the inhibition at 3.3 µM in assay [1] is not below 50%; in the assay on HeLa (cervical cancer), 30 to 50%; in assay [2], 30 to 50%; in assay [3] it was less than 30%; with SW480 (colon cancer) it was less than 30%; in assay [5], 30 to 50%. Also, in the assay with HepG2 (liver cancer), the inhibition at 3.3 µM was less than 30%. Further, the inhibition at 10 µM in assay [1] was not below 50%; with HeLa (cervical cancer), not below 50%; in assay [2] it was not below 50%; in assay [3] it was 30 to 50%; in assay [4] it was less than 30%; in the assay on SW480 (colon cancer), less than 30%. The inhibition at 10 µM (in assay [5]; with HepG2 (liver cancer)) was 30 to 50% each time. The inhibition at 30 µM with SW480 (colon cancer) (Compound concentration: 30 μM, read-out: Antiproliferative activity in cancerous cells, SW480) is 30 to 50%; in the assay on HepG2 (liver cancer) (Compound concentration: 30 μM, read-out: Antiproliferative activity in cancerous cells, HepG2) it was 30 to 50%.

`O=C(O)CC1=C(Cc2ccc(Oc3ccc(F)cc3)cc2)/C(=C/c2ccc(CN3CCOCC3)cc2)c2ccc(F)cc21` [A113, (Z)-2-(5-Fluoro-2-(4-(4-fluorophenoxy)benzyl)-1-(4-(morpholinomethyl)-benzylidene)-1H-inden-3-yl)acetic acid]: the inhibition at 3.3 µM in assay [1] was not below 50%; in the assay with HeLa (cervical cancer), not below 50%; in assay [2], less than 30%; in assay [3], less than 30%; in the assay with SW480 (colon cancer) it was not below 50%; in assay [5], 30 to 50%. Besides, the inhibition at 3.3 µM in the assay on HepG2 (liver cancer) was not below 50%. The inhibition at 10 µM in assay [1] was not below 50%; in the assay on HeLa (cervical cancer), not below 50%; in assay [2] it was less than 30%; in assay [3] it was less than 30%; in assay [4], more than 80%; in the assay on SW480 (colon cancer), not below 50%. Moreover, the figures for the inhibition at 10 µM (in assay [5]; in the assay on HepG2 (liver cancer)) were 30 to 50% and not below 50%, respectively. The inhibition at 30 µM in assay [2] (B16-F10, Compound concentration: 30 μM, read-out: Antiproliferative activity in cancerous cells, B16F10) is less than 30%; in assay [3] (A-431, Compound concentration: 30 μM, read-out: Antiproliferative activity in cancerous cells, A431) it was less than 30%.

For the compound `CCCC1=C(CC(=O)O)c2cc(F)ccc2/C1=C\c1cccc(Oc2ccccc2)c1` [C22, (Z)-2-(5-Fluoro-1-(3-phenoxybenzylidene)-2-propyl-1H-inden-3-yl)acetic acid], the inhibition at 3.3 µM in assay [1] is not below 50%; with HeLa (cervical cancer), less than 30%; in assay [2] it was 30 to 50%; in assay [3], less than 30%; in the assay on SW480 (colon cancer) it was less than 30%; in assay [5] it was not below 50%. Besides, the inhibition at 3.3 µM with HepG2 (liver cancer) is less than 30%. Moreover, the inhibition at 10 µM is not below 50% in assay [1]; not below 50% in the assay with HeLa (cervical cancer); not below 50% in assay [2]; not below 50% in assay [3]; more than 80% in assay [4]; 30 to 50% in the assay with SW480 (colon cancer). In addition, the inhibition at 10 µM (in assay [5]; in the assay with HepG2 (liver cancer)) was not below 50% in each case.

In the case of `O=C(O)CC1=C(CC2CCCC2)/C(=C/c2cccc(Oc3ccccc3)c2)c2ccc(F)cc21` [C20, (Z)-2-(2-(Cyclopentylmethyl)-5-fluoro-1-(3-phenoxybenzylidene)-1H-inden-3-yl)acetic acid], the inhibition at 3.3 µM in assay [1] was 30 to 50%; with HeLa (cervical cancer) it was 30 to 50%; in assay [2], not below 50%; in assay [3], not below 50%; in the assay on SW480 (colon cancer), not below 50%; in assay [5], 30 to 50%. For the same compound, in the assay on HepG2 (liver cancer), the inhibition at 3.3 µM was less than 30%. For the same compound, the inhibition at 10 µM is not below 50% in assay [1]; not below 50% in the assay with HeLa (cervical cancer); not below 50% in assay [2]; not below 50% in assay [3]; more than 80% in assay [4]; not below 50% in the assay with SW480 (colon cancer). The values for the inhibition at 10 µM (in assay [5]; with HepG2 (liver cancer)) were not below 50% and less than 30%, respectively.
